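Interpolation was linear, between the two tested concentrations surrounding the appropriate level; five concentrations were tested over 48 hours in 96-well plates. The concentration for full growth arrest is given as TGI.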
What was measured:
Experiment in all cases: DTP human tumour cell line panel, 48 h
[1] = test system: NCI-H23 lung
[2] = test system: MALME-3M melanoma
[3] = test system: UO-31 renal
[4] = test system: SF-268 CNS
[5] = test system: MDA-MB-435
[6] = test system: MOLT-4 leukemia
[7] = test system: CAKI-1 renal
[8] = test system: SNB-19 CNS
[9] = test system: SK-MEL-5 melanoma
[10] = test system: SK-MEL-2 melanoma
[11] = test system: SR leukemia
[12] = test system: K-562 leukemia
[13] = test system: M14 melanoma
[14] = test system: HT29 colon
[15] = test system: HCC-2998 colon
[16] = test system: PC-3 prostate
[17] = test system: A498 renal
[18] = test system: NCI/ADR-RES ovarian
[19] = test system: BT-549 breast
[20] = test system: HS 578T breast
[21] = test system: MCF7 breast
[22] = test system: MDA-N
[23] = test system: DU-145 prostate
[24] = test system: 786-0 renal
[25] = test system: OVCAR-4 ovarian
[26] = test system: NCI-H460 lung
[27] = test system: SK-OV-3 ovarian
[28] = test system: HCT-116 colon
[29] = test system: A549 NSCLC
[30] = test system: OVCAR-5 ovarian
[31] = test system: LOX IMVI melanoma
[32] = test system: SK-MEL-28 melanoma
[33] = test system: IGROV1 ovarian
[34] = test system: RPMI-8226 leukemia
[35] = test system: U251 CNS
[36] = test system: CCRF-CEM leukemia
[37] = test system: HL-60(TB) leukemia
[38] = test system: RXF 393 renal
[39] = test system: OVCAR-8 ovarian
[40] = test system: NCI-H226 lung
[41] = test system: SNB-75 CNS
[42] = test system: UACC-257 melanoma
[43] = test system: EKVX NSCLC
[44] = test system: OVCAR-3 ovarian
[45] = test system: SF-539 CNS
[46] = test system: HCT-15 colon
[47] = test system: UACC-62 melanoma
[48] = test system: TK-10 renal
[49] = test system: COLO 205 colon
[50] = test system: SN12C renal
[51] = test system: ACHN renal
[52] = test system: SW-620 colon
[53] = test system: T-47D breast
[54] = test system: NCI-H522 lung
[55] = test system: MDA-MB-231 breast
[56] = test system: HOP-92 NSCLC
[57] = test system: KM12 colon
[58] = test system: HOP-62 NSCLC
[59] = test system: SF-295 CNS

CON[N+]([O-])=NC(C)C
TGI [1]: > 100 µM
TGI [2]: > 100 µM
TGI [3]: > 100 µM
TGI [4]: > 100 µM
TGI [5]: > 100 µM
TGI [6]: > 100 µM
TGI [7]: > 100 µM
TGI [8]: > 100 µM
TGI [9]: > 100 µM
TGI [10]: > 100 µM
TGI [11]: > 100 µM
TGI [12]: > 100 µM
TGI [13]: > 100 µM
TGI [14]: > 100 µM
TGI [15]: > 100 µM
TGI [16]: > 100 µM
TGI [17]: > 100 µM
TGI [18]: > 100 µM
TGI [19]: > 100 µM
TGI [20]: > 100 µM
TGI [21]: > 100 µM
TGI [22]: > 100 µM
TGI [23]: > 100 µM
TGI [24]: > 100 µM
TGI [25]: > 100 µM
TGI [26]: > 100 µM
TGI [27]: > 100 µM
TGI [28]: > 100 µM
TGI [29]: > 100 µM
TGI [30]: > 100 µM
TGI [31]: > 100 µM
TGI [32]: > 100 µM
TGI [33]: > 100 µM
TGI [34]: > 100 µM
TGI [35]: > 100 µM
TGI [36]: > 100 µM
TGI [37]: > 100 µM
TGI [38]: > 100 µM
TGI [39]: > 100 µM
TGI [40]: > 100 µM
TGI [41]: > 100 µM
TGI [42]: > 100 µM
TGI [43]: > 100 µM
TGI [44]: > 100 µM
TGI [45]: > 100 µM
TGI [46]: > 100 µM
TGI [47]: > 100 µM
TGI [48]: > 100 µM
TGI [49]: > 100 µM
TGI [50]: > 100 µM
TGI [51]: > 100 µM
TGI [52]: > 100 µM
TGI [53]: > 100 µM
TGI [54]: > 100 µM
TGI [55]: > 100 µM
TGI [56]: > 100 µM
TGI [57]: > 100 µM
TGI [58]: > 100 µM
TGI [59]: > 100 µM

C=C(Br)COc1ccc2c(C)cc(=O)oc2c1
TGI [1]: > 100 µM
TGI [2]: > 100 µM
TGI [3]: > 100 µM
TGI [4]: > 100 µM
TGI [5]: > 100 µM
TGI [6]: > 100 µM
TGI [7]: > 100 µM
TGI [8]: > 100 µM
TGI [9]: 37.4 µM
TGI [10]: > 100 µM
TGI [11]: > 100 µM
TGI [12]: > 100 µM
TGI [13]: > 100 µM
TGI [14]: > 100 µM
TGI [15]: > 100 µM
TGI [16]: > 100 µM
TGI [17]: > 100 µM
TGI [18]: > 100 µM
TGI [19]: > 100 µM
TGI [20]: > 100 µM
TGI [21]: 19.7 µM
TGI [22]: > 100 µM
TGI [23]: > 100 µM
TGI [24]: > 100 µM
TGI [25]: > 100 µM
TGI [26]: > 100 µM
TGI [28]: > 100 µM
TGI [29]: > 100 µM
TGI [30]: > 100 µM
TGI [31]: > 100 µM
TGI [32]: > 100 µM
TGI [33]: > 100 µM
TGI [34]: > 100 µM
TGI [35]: > 100 µM
TGI [36]: > 100 µM
TGI [37]: > 100 µM
TGI [38]: 81 µM
TGI [39]: > 100 µM
TGI [40]: > 100 µM
TGI [42]: > 100 µM
TGI [43]: > 100 µM
TGI [44]: > 100 µM
TGI [45]: > 100 µM
TGI [46]: > 100 µM
TGI [48]: > 100 µM
TGI [49]: 16.7 µM
TGI [50]: > 100 µM
TGI [51]: > 100 µM
TGI [52]: > 100 µM
TGI [53]: 87.2 µM
TGI [54]: > 100 µM
TGI [55]: > 100 µM
TGI [56]: > 100 µM
TGI [57]: 12.1 µM
TGI [58]: > 100 µM

COCCCNc1c2ccccc2nc2ccccc12
TGI [1]: 10.3 µM
TGI [2]: 7.17 µM
TGI [3]: 8.01 µM
TGI [4]: 16.8 µM
TGI [5]: 12.7 µM
TGI [6]: > 100 µM
TGI [7]: 3.75 µM
TGI [8]: 6.41 µM
TGI [9]: 4.51 µM
TGI [10]: 4.89 µM
TGI [11]: 12.1 µM
TGI [12]: 23.6 µM
TGI [13]: 3.89 µM
TGI [14]: 51.8 µM
TGI [15]: 4.58 µM
TGI [16]: 5.68 µM
TGI [17]: 15.2 µM
TGI [18]: 33.6 µM
TGI [19]: 53.2 µM
TGI [20]: 9.32 µM
TGI [21]: 5.27 µM
TGI [22]: 8.78 µM
TGI [23]: 9.75 µM
TGI [24]: 17.9 µM
TGI [25]: 20.6 µM
TGI [26]: 3.55 µM
TGI [27]: 12.4 µM
TGI [28]: 15.7 µM
TGI [29]: 14 µM
TGI [30]: 6.93 µM
TGI [31]: 5.67 µM
TGI [32]: 6.54 µM
TGI [33]: 22.9 µM
TGI [36]: 60.6 µM
TGI [37]: 15.2 µM
TGI [38]: 14.2 µM
TGI [39]: 15.5 µM
TGI [42]: 7.03 µM
TGI [43]: 27.3 µM
TGI [44]: 7.55 µM
TGI [45]: 8.59 µM
TGI [46]: 3.38 µM
TGI [47]: 6.35 µM
TGI [48]: 89.8 µM
TGI [49]: 6.73 µM
TGI [50]: 15.1 µM
TGI [51]: 2.39 µM
TGI [52]: 12.6 µM
TGI [53]: 6.89 µM
TGI [54]: 6.8 µM
TGI [55]: 12.5 µM
TGI [56]: 12.5 µM
TGI [57]: 24.6 µM
TGI [58]: 12.2 µM
TGI [59]: 14.9 µM

O=C(CC(C(=O)c1cccs1)c1ccc2c(c1)OCO2)c1ccccc1 (stereo not drawn)
TGI [1]: > 100 µM
TGI [2]: > 100 µM
TGI [3]: > 100 µM
TGI [4]: > 100 µM
TGI [5]: > 100 µM
TGI [7]: > 100 µM
TGI [8]: > 100 µM
TGI [9]: > 100 µM
TGI [10]: > 100 µM
TGI [11]: > 100 µM
TGI [13]: > 100 µM
TGI [14]: > 100 µM
TGI [15]: > 100 µM
TGI [16]: > 100 µM
TGI [17]: > 100 µM
TGI [18]: > 100 µM
TGI [19]: > 100 µM
TGI [20]: > 100 µM
TGI [21]: > 100 µM
TGI [22]: > 100 µM
TGI [23]: > 100 µM
TGI [24]: > 100 µM
TGI [25]: > 100 µM
TGI [26]: > 100 µM
TGI [27]: > 100 µM
TGI [28]: > 100 µM
TGI [29]: > 100 µM
TGI [31]: > 100 µM
TGI [32]: > 100 µM
TGI [33]: > 100 µM
TGI [34]: > 100 µM
TGI [35]: > 100 µM
TGI [37]: > 100 µM
TGI [38]: > 100 µM
TGI [39]: > 100 µM
TGI [40]: > 100 µM
TGI [41]: > 100 µM
TGI [42]: > 100 µM
TGI [44]: > 100 µM
TGI [45]: > 100 µM
TGI [46]: > 100 µM
TGI [47]: > 100 µM
TGI [48]: > 100 µM
TGI [49]: > 100 µM
TGI [50]: > 100 µM
TGI [51]: > 100 µM
TGI [52]: > 100 µM
TGI [53]: > 100 µM
TGI [54]: > 100 µM
TGI [55]: > 100 µM
TGI [56]: > 100 µM
TGI [57]: > 100 µM
TGI [58]: > 100 µM
TGI [59]: > 100 µM
